# According to patent US5324502A, “Radiopharmaceuticals for imaging the heart” (priority 1992, dated 1994):
# Read-outs that look alike come from different tables or passages of the source.
# What was measured:
# [1] = rat, i.v.
# Description: The gallium-67 complexes are prepared by ligand exchange from gallium-67 chloride, employing the tris(acetylacetonato)gallium(III) complex as an intermediate. The Ga-67 acetylacetonate in ethanol is reacted with the chelating ligand or ligand precursor at elevated temperature to form rapidly the desired gallium radiopharmaceutical. […] The biodistribution of several radiopharmaceuticals was determined in rats following intravenous injection using techniques previously described (M. A. Green, Nuclear Medicine and Biology 14:59-61, 1987; E. John and M. A. Green, J. Medicinal Chemistry, 33:1764-1770, 1990).
# Under ether anesthesia, 1 to 3 μCi (0.1-0.2 mL) of no-carrier-added Ga-67 compound was administered by bolus injection into the femoral vein of male Sprague-Dawley rats. The ether anesthetized rats were sacrificed by decapitation at given time intervals post-injection, organs of interest were removed, weighed, and the gallium-67 activity counted. The biodistribution was calculated as a percentage of the injected dose per gram of tissue and percentage of injected dose per organ for each sample.
# [2] = Octanol/water partition coefficient of radiolabeled gallium complexes; format: physicochemical; details: octanol/tris buffer, pH 7
# Description: Octanol/water partition coefficients were measured by vortex mixing 1 mL of 1-octanol and 1 mL of isotonic Tris buffer (pH 7.0) with a 1-5 μL sample of the radiolabeled gallium complex. Following centrifugation at >1200 g for 5 minutes, the octanol and aqueous phases were sampled and counted in an automatic well counter.
smiles,measurement,setting,value
CCN(CC)c1ccc(C=NCCCNCCNCCCN=Cc2ccc(N(CC)CC)cc2[O-])c([O-])c1.[67Ga+3] [(4-deaSal)2 BAPEN],"% Injected Dose per Gram Tissue, Blood",[1]; 1 min,0.80 ± 0.01 % Injected Dose per Gram Tissu
same,"% Injected Dose per Gram Tissue, Brain",[1]; 1 min,0.04 ± 0.01 % Injected Dose per Gram Tissu
same,"% Injected Dose per Gram Tissue, Heart",[1]; 1 min,0.98 ± 0.07 % Injected Dose per Gram Tissu
same,"% Injected Dose per Gram Tissue, Kidney (one)",[1]; 1 min,7.22 ± 0.48 % Injected Dose per Gram Tissu
same,"% Injected Dose per Gram Tissue, Liver",[1]; 1 min,4.15 ± 0.25 % Injected Dose per Gram Tissu
same,"% Injected Dose per Gram Tissue, Lungs",[1]; 1 min,1.16 ± 0.06 % Injected Dose per Gram Tissu
same,"% Injected Dose per Gram Tissue, Spleen",[1]; 1 min,1.22 ± 0.47 % Injected Dose per Gram Tissu
same,"% injected dose in heart, 1 min","[1]; 1 min, preliminary studies",0.69 ± 0.05 % injected dose
same,"% Injected Dose Per Gram of Tissue, Blood",[1]; 5 min,0.39 ± 0.05 % Injected Dose Per Gram of Tissue
same,"% Injected Dose Per Gram of Tissue, Brain",[1]; 5 min,0.02 ± 0.01 % Injected Dose Per Gram of Tissue
same,"% Injected Dose Per Gram of Tissue, Heart",[1]; 5 min,0.91 ± 0.06 % Injected Dose Per Gram of Tissue
same,"% Injected Dose Per Gram of Tissue, Kidney (1)",[1]; 5 min,7.11 ± 0.89 % Injected Dose Per Gram of Tissue
same,"% Injected Dose Per Gram of Tissue, Liver",[1]; 5 min,3.96 ± 0.28 % Injected Dose Per Gram of Tissue
same,"% Injected Dose Per Gram of Tissue, Lungs",[1]; 5 min,0.89 ± 0.19 % Injected Dose Per Gram of Tissue
same,"% Injected Dose Per Gram of Tissue, Spleen",[1]; 5 min,1.19 % Injected Dose Per Gram of Tissue
same,"% Injected Dose per Gram Tissue, Blood",[1]; 15 min,0.20 ± 0.03 % Injected Dose per Gram Tissu
same,"% Injected Dose per Gram Tissue, Brain",[1]; 15 min,0.02 ± 0.00 % Injected Dose per Gram Tissu
same,"% Injected Dose per Gram Tissue, Heart",[1]; 15 min,0.90 ± 0.06 % Injected Dose per Gram Tissu
same,"% Injected Dose per Gram Tissue, Kidney (one)",[1]; 15 min,6.82 ± 0.53 % Injected Dose per Gram Tissu
same,"% Injected Dose per Gram Tissue, Liver",[1]; 15 min,3.21 ± 0.25 % Injected Dose per Gram Tissu
same,"% Injected Dose per Gram Tissue, Lungs",[1]; 15 min,0.70 ± 0.07 % Injected Dose per Gram Tissu
same,"% Injected Dose per Gram Tissue, Spleen",[1]; 15 min,1.27 ± 0.17 % Injected Dose per Gram Tissu
same,"% Injected Dose per Gram Tissue, Blood",[1]; 120 min,0.10 ± 0.01 % Injected Dose per Gram Tissu
same,"% Injected Dose per Gram Tissue, Brain",[1]; 120 min,0.02 ± 0.01 % Injected Dose per Gram Tissu
same,"% Injected Dose per Gram Tissue, Heart",[1]; 120 min,0.92 ± 0.10 % Injected Dose per Gram Tissu
same,"% Injected Dose per Gram Tissue, Kidney (one)",[1]; 120 min,5.69 ± 0.75 % Injected Dose per Gram Tissu
same,"% Injected Dose per Gram Tissue, Liver",[1]; 120 min,1.07 ± 0.10 % Injected Dose per Gram Tissu
same,"% Injected Dose per Gram Tissue, Lungs",[1]; 120 min,0.53 ± 0.06 % Injected Dose per Gram Tissu
same,"% Injected Dose per Gram Tissue, Spleen",[1]; 120 min,0.99 ± 0.18 % Injected Dose per Gram Tissu
same,"% injected dose in heart, 2 h","[1]; 2 h, preliminary studies",0.65 ± 0.05 % injected dose
same,Heart/Blood,"[1]; ratio, 1 min",1.22 ± 0.08
same,Heart/Liver,"[1]; ratio, 1 min",0.24 ± 0.03
same,Heart/Lungs,"[1]; ratio, 1 min",0.85 ± 0.10
same,Heart/Blood,"[1]; ratio, 5 min",2.36 ± 0.25
same,Heart/Liver,"[1]; ratio, 5 min",0.23 ± 0.02
same,Heart/Lung,"[1]; ratio, 5 min",1.05 ± 0.19
same,Heart/Blood,"[1]; ratio, 15 min",4.54 ± 0.31
same,Heart/Liver,"[1]; ratio, 15 min",0.28 ± 0.04
same,Heart/Lungs,"[1]; ratio, 15 min",1.29 ± 0.05
same,Heart/Blood,"[1]; ratio, 120 min",9.21 ± 1.12
same,Heart/Liver,"[1]; ratio, 120 min",0.86 ± 0.18
same,Heart/Lungs,"[1]; ratio, 120 min",1.74 ± 0.35
same,log P,[2],2.44
